Reference: US10800791B2, “Triazole ACC inhibitors and uses thereof” (Gilead Apollo, LLC, priority 2015, dated 2020)
In brackets after ≈: the same amount, converted by molar mass. Read-outs that look alike come from different tables or passages of the source.

What was measured:
human (hACC2) = human (hACC2) (Homo sapiens, UniProt O00763); experiment: In vitro ACC inhibition assay (ADP-Glo), hACC2; assay type: biochemical; settings: 5 nM ACC2, 20 μM ATP, 20 μM acetyl-CoA
Protocol: The detailed procedure is as follows. […] 10 μL ADP glo reagent was added. […] 20 μL kinase detection reagent was added.

Septoria tritici (St) = experiment: Growth inhibition assay of fungal pathogens, St; assay type: cell-based; settings: Zymoseptoria tritici, 48 h, growth inhibition at 48 hours vs 2% DMSO control
Protocol: (§1) Compounds of the present invention were evaluated in a growth inhibition assay to determine the ability to control the growth of fungal pathogens, such as Botrtyis cinerea (Bc), Collectotrichum graminicola (Cg), Diplodia maydis (Dm), Fusarium moniliforme (Fm), Fusarium virguliforme (Fv), Phytophthora capsici (Pc), Rhizoctonia solani (Rs), and Septoria tritici (St).
(§2) Compounds to be tested were dissolved in DMSO at 2.5 mg/ml to produce compound stock solutions (“stocks”). Stocks were diluted with DMSO by a five-fold dilution in a 96-well stock plate, and two sets of final concentrations of 50, 10, and 2 ppm or 2, 0.4, and 0.08 ppm were obtained in vitro. A set of positive controls was also prepared, with various concentrations of Soraphen (2, 0.4, and 0.08 ppm), Metalaxyl (1.1, 0.22, and 0.04 ppm), and Metconazole (2, 0.4, and 0.08 ppm or 0.2, 0.04, and 0.008 ppm) after the five-fold dilutions. Negative controls on each plate included 2% DMSO, water, and a blank (media+2% DMSO).
(§3) Fungal spores were isolated from previously sub-cultured plates of Botrtyis cinerea (Bc), Collectotrichum graminicola (Cg), Diplodia maydis (Dm), Fusarium moniliforme (Fm), Fusarium virguliforme (Fv), Phytophthora capsici (Pc), and Septoria tritici (St). The isolated spores were diluted to individual concentrations with a 17% V8 liquid media. For Rhizoctonia solani (Rs) and Pythium irregulare, 1.5 mm mycelial plugs were used in place of spores and/4 Potato Dextrose Broth (PDB) was used for dilution. The spore concentrations and plug sizes were based on growth curves generated at 48 hours for each pathogen.
(§4) In a second 96-well plate, the spores or mycelial plugs, media, diluted compound solutions, and controls were combined. Once the compound was added, a true final concentration of compound in each well was measured by an OD600 reading, which adjusted for any compound precipitation that might have occurred in the well. Plate readings were repeated at both 24 and 48 hours. The blank negative control was used as a background subtraction. Additional visual ratings were performed at both 24 and 48 hours for checking on precipitation and confirming efficacy. Visual and OD600 ratings of the compounds at 48 hours were compared to the 2% DMSO negative control, and the percent of pathogen growth inhibition was determined based on those values.

C. parapsilosis = experiment: Antifungal Activity Assay (broth microtiter MIC), C. parapsilosis; assay type: cell-based, Candida parapsilosis; settings: Lodderomyces parapsilosis, ATCC22019, 48 h
In short: (§5)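 Susceptibility was determined by CLSI M27-A3 broth microdilution in RPMI 1640 buffered with MOPS. Growth inhibition was scored visually after 48 h.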

[1] = tested on: Fusarium virguliforme (Fv); experiment: Growth inhibition assay of fungal pathogens, Fv; assay type: cell-based; settings: 48 h
Protocol: as §1, §2, §3, §4

C. albicans = experiment: Antifungal Activity Assay (broth microtiter MIC), C. albicans; assay type: cell-based, Candida albicans; settings: Candida albicans, ATCC90028, 48 h
In short: as §5

[2] = tested on: Phytophthora capsici (Pc); experiment: Growth inhibition assay of fungal pathogens, Pc; assay type: cell-based; settings: 48 h
Protocol: as §1, §2, §3, §4

C. krusei = experiment: Antifungal Activity Assay (broth microtiter MIC), C. krusei; assay type: cell-based, Candida krusei; settings: Pichia kudriavzevii, ATCC6258, 48 h
In short: as §5

fungal (fACC2) = fungal (fACC2) (UniProt Q00955); settings: read-out: fACC2 (in vitro ACC2 Inhibition Assay, IC50), ADP-Glo, 5 nM ACC2, 20 μM ATP, 20 μM acetyl-CoA
Rhizoctonia solani (Rs) = experiment: Growth inhibition assay of fungal pathogens, Rs; assay type: cell-based; settings: 48 h
Diplodia maydis (Dm) = experiment: Growth inhibition assay of fungal pathogens, Dm; assay type: cell-based; settings: Stenocarpella maydis, 48 h, growth inhibition at 48 hours vs 2% DMSO control
Protocol: as §1, §2, §3, §4

Botrtyis cinerea (Bc) = experiment: Growth inhibition assay of fungal pathogens, Bc; assay type: cell-based; settings: 48 h, growth inhibition at 48 hours vs 2% DMSO control
Protocol: as §1, §2, §3, §4

[3] = tested on: Fusarium moniliforme (Fm); experiment: Growth inhibition assay of fungal pathogens, Fm; assay type: cell-based; settings: Fusarium verticillioides, 48 h, read-out: Concentration at 90% Inhibition Fm
Protocol: as §1, §2, §3, §4

[4] = tested on: Collectotrichum graminicola (Cg); experiment: Growth inhibition assay of fungal pathogens, Cg; assay type: cell-based; settings: 48 h, growth inhibition at 48 hours vs 2% DMSO control
Protocol: as §1, §2, §3, §4

[5] = read-out: Concentration at 90% Inhibition St, Septoria tritici
[6] = read-out: MIC, C. parapsilosis ATCC 22019, Table 3a, 3 replicates, MIC recorded at 48 h
[7] = read-out: MIC, C. parapsilosis ATCC 22019, Table 3b (additional results), 3 replicates, MIC recorded at 48 h
[8] = read-out: Concentration at 90% Inhibition Fv, Fusarium virguliforme, growth inhibition at 48 hours vs 2% DMSO control
[9] = read-out: MIC, C. albicans ATCC 90028, Table 3a, 3 replicates, MIC recorded at 48 h
[10] = read-out: MIC, C. albicans ATCC 90028, Table 3b (additional results), 3 replicates, MIC recorded at 48 h
[11] = read-out: Concentration at 90% Inhibition Pc, Phytophthora capsici, growth inhibition at 48 hours vs 2% DMSO control
[12] = read-out: MIC, C. krusei ATCC 6258, Table 3a, 3 replicates, MIC recorded at 48 h
[13] = read-out: MIC, C. krusei ATCC 6258, Table 3b (additional results), 3 replicates, MIC recorded at 48 h
[14] = read-out: Concentration at 90% Inhibition Rs, Rhizoctonia solani, mycelial plugs, growth inhibition at 48 hours vs 2% DMSO control
[15] = read-out: Concentration at 90% Inhibition Dm, Diplodia maydis
[16] = read-out: Concentration at 90% Inhibition Bc, Botrtyis cinerea
[17] = read-out: Concentration at 90% Inhibition Cg, Collectotrichum graminicola

human (hACC2), sequence (O00763 whole entry): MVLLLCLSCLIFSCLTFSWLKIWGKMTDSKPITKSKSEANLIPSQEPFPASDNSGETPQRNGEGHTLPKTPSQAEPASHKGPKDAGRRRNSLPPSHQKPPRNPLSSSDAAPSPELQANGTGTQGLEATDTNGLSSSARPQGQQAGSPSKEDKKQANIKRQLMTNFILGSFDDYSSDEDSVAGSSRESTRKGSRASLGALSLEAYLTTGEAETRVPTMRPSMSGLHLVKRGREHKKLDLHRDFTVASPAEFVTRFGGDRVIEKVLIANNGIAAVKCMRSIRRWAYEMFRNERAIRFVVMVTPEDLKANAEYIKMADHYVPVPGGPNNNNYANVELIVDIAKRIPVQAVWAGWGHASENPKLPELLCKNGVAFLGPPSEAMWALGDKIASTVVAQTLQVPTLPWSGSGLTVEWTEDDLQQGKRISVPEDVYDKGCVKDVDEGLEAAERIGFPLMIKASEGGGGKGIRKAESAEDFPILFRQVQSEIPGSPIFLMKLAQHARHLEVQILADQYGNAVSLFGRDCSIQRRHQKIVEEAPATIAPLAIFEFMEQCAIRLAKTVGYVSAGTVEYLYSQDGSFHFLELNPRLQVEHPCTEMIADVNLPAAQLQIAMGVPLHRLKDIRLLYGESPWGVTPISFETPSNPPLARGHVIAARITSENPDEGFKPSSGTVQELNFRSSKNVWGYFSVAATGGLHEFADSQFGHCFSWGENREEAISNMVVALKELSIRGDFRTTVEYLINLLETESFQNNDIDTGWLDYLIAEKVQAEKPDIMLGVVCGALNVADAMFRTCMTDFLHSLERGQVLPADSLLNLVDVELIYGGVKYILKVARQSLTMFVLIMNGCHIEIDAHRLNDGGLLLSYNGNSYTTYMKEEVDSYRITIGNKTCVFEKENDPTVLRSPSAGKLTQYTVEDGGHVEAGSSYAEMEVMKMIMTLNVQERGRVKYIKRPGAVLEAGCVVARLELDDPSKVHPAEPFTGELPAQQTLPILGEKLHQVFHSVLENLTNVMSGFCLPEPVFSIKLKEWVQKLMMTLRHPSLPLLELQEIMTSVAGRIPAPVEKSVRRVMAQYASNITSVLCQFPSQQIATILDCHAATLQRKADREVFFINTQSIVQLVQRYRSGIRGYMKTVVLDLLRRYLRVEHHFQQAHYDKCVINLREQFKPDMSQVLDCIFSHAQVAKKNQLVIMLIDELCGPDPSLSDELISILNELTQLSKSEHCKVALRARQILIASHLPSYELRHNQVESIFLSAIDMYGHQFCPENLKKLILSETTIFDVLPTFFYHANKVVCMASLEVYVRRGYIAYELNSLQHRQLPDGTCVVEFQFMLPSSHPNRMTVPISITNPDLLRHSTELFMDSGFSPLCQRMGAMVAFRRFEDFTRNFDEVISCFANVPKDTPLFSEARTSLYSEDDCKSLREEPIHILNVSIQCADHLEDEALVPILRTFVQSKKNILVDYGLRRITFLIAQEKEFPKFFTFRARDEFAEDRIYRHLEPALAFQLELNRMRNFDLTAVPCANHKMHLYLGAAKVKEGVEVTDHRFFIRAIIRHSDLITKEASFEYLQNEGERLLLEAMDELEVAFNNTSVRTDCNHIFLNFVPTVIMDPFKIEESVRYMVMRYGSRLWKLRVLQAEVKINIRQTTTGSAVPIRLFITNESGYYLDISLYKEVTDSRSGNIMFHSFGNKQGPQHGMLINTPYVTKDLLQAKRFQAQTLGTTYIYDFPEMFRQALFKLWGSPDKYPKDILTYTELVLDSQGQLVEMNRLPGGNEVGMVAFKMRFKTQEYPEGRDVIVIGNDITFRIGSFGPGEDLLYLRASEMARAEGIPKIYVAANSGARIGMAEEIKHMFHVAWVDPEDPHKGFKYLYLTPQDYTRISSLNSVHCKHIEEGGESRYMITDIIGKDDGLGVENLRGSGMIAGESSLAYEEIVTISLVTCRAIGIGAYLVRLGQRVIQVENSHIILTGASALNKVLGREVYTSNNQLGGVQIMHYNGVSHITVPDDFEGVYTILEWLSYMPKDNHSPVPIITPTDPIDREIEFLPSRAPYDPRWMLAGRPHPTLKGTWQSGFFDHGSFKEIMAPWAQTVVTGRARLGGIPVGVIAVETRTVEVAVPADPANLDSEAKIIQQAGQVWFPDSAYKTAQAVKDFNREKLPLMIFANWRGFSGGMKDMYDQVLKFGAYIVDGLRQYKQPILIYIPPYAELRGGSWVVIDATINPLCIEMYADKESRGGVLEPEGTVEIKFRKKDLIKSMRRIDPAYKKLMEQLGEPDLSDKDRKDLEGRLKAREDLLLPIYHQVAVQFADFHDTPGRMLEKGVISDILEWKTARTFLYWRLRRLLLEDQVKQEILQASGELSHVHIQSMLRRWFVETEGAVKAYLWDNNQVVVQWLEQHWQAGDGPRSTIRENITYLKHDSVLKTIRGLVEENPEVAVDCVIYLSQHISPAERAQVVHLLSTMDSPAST
fungal (fACC2), sequence (Q00955 whole entry): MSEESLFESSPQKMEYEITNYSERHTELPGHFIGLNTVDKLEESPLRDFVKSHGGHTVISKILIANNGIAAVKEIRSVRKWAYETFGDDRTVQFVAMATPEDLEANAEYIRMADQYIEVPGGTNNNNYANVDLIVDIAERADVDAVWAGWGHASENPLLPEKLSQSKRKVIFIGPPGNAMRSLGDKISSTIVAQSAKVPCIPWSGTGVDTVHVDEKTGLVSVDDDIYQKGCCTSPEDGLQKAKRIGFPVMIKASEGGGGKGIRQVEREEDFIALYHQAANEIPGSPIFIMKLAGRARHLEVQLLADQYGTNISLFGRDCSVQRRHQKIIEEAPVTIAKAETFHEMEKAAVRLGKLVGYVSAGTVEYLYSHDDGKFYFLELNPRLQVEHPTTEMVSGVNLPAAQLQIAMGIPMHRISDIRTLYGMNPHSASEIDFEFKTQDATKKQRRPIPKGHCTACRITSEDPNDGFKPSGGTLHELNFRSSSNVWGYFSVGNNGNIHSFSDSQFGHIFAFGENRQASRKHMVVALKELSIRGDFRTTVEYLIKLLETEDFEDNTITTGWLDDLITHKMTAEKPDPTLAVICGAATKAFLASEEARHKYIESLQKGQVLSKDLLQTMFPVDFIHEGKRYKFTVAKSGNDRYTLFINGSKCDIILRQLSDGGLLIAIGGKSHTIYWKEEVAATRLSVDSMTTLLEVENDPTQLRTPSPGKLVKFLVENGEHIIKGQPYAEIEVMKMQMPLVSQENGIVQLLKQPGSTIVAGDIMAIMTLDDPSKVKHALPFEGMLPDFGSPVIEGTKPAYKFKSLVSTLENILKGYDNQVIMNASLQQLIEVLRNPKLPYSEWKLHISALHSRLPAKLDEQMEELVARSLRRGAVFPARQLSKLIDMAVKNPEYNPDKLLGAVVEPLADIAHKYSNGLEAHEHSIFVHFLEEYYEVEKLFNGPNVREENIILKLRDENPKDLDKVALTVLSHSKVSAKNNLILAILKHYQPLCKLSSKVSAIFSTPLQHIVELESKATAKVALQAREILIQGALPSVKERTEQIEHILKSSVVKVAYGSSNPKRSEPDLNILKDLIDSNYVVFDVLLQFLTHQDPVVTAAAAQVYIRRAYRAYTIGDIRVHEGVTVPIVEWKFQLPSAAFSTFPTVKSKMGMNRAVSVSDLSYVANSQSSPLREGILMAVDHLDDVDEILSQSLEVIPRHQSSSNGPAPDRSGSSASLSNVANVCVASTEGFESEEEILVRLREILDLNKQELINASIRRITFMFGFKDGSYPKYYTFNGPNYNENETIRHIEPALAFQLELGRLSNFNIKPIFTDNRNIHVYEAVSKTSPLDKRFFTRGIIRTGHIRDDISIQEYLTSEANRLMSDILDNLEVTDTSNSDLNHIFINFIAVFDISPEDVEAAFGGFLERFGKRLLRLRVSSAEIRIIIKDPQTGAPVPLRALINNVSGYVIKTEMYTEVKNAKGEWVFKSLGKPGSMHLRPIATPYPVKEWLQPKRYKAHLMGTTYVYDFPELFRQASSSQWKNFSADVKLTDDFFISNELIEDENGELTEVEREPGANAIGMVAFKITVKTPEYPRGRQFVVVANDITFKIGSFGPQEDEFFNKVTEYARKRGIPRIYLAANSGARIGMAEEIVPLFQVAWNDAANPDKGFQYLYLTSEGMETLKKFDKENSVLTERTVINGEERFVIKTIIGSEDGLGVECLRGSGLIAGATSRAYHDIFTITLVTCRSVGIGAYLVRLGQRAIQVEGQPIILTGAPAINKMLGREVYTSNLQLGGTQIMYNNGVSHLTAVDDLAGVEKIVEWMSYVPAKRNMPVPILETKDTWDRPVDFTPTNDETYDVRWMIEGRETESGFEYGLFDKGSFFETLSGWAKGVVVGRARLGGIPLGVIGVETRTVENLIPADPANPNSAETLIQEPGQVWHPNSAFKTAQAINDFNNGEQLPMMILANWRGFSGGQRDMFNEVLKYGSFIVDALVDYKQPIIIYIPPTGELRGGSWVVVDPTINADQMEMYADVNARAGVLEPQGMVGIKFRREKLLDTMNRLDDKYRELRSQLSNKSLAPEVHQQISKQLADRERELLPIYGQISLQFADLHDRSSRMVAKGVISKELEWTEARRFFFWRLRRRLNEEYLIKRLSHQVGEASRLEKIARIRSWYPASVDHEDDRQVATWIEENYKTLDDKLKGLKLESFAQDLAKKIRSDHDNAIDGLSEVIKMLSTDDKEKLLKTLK

Structure (SMILES) | IC50 (human (hACC2); Table 2a) | IC50 (human (hACC2); Table 2b, additional results) | IC90 (Septoria tritici (St); [5]) | MIC (C. parapsilosis; [6]) | MIC (C. parapsilosis; [7]) | IC90 [1, 8] | MIC (C. albicans; [9]) | MIC (C. albicans; [10]) | IC90 [2, 11] | MIC (C. krusei; [12]) | MIC (C. krusei; [13]) | IC50 (fungal (fACC2); Table 2a) | IC50 (fungal (fACC2); Table 2b, additional results) | IC90 (Rhizoctonia solani (Rs); [14]) | IC90 (Diplodia maydis (Dm); [15]) | IC90 (Botrtyis cinerea (Bc); [16]) | IC90 [3] | IC90 [4, 17] | other results
COc1ccccc1[C@H](Cn1c(=O)n(C(C)(C)C(=O)NC(C)C)c(=O)c2c(C)c(-n3nccn3)sc21)OCCC#N [Compound I-136, 2-[1-[(2R)-2-(2-cyanoethoxy)-2-(2-methoxyphenyl)ethyl]-5-methyl-2,4-dioxo-6-(2H-1,2,3-triazol-2-yl)-1H,2H,3H,4H-thieno[2,3-d]pyrimidin-3-yl]-2-methyl-N-(propan-2-yl)propanamide] | 5 to 10 nM | 5 to 10 nM | 2 µg/mL (≈ 3.45 µM) | 0.25 to 1 µg/mL (≈ 0.431 to 1.73 µM) | 0.25 to 1 µg/mL (≈ 0.431 to 1.73 µM) | 0.4 µg/mL (≈ 0.69 µM) | 0.25 to 1 µg/mL (≈ 0.431 to 1.73 µM) | 1.01 to 2 µg/mL (≈ 1.74 to 3.45 µM) | 2 µg/mL (≈ 3.45 µM) | 0.06 to 0.24 µg/mL (≈ 0.104 to 0.414 µM) | 0.25 to 1 µg/mL (≈ 0.431 to 1.73 µM) | 1 to 5 nM | 0.3 to 1 nM | 0.08 µg/mL (≈ 0.138 µM) | 0.08 µg/mL (≈ 0.138 µM) | 0.08 µg/mL (≈ 0.138 µM) | 0.08 µg/mL (≈ 0.138 µM) | 0.08 µg/mL (≈ 0.138 µM) | 
COc1ccc(F)cc1[C@H](Cn1c(=O)n([C@H](C)C(=O)NC(C)C)c(=O)c2c(C)c(-n3nccn3)sc21)OCCC#N [Compound I-138] | 1 to 5 nM | 1 to 5 nM | 2 µg/mL (≈ 3.43 µM) | 0.25 to 1 µg/mL (≈ 0.428 to 1.71 µM) | 1.01 to 2 µg/mL (≈ 1.73 to 3.43 µM) | 0.4 µg/mL (≈ 0.685 µM) | 0.25 to 1 µg/mL (≈ 0.428 to 1.71 µM) | > 4.01 µg/mL | 2 µg/mL (≈ 3.43 µM) | 0.25 to 1 µg/mL (≈ 0.428 to 1.71 µM) | 2.01 to 4 µg/mL (≈ 3.44 to 6.85 µM) | 1 to 5 nM | 0.3 to 1 nM | 0.08 µg/mL (≈ 0.137 µM) | 0.08 µg/mL (≈ 0.137 µM) | 0.4 µg/mL (≈ 0.685 µM) | 0.08 µg/mL (≈ 0.137 µM) | 0.08 µg/mL (≈ 0.137 µM) | 
COc1ccc(F)cc1[C@H](Cn1c(=O)n([C@H](C)C(=O)N(C)C(C)C)c(=O)c2c(C)c(-n3nccn3)sc21)OCCC#N [Compound I-139] | 5 to 10 nM | 1 to 5 nM |  |  |  |  |  |  |  |  |  | 5 to 10 nM | 1 to 5 nM |  |  |  |  |  | IC90 (Septoria tritici (St); Septoria tritici, read-out: Concentration at 90% Inhibition St): > 50 µg/mL; MIC (C. parapsilosis; Table 3a, ATCC 22019, 3 replicates, MIC recorded at 48 h, read-out: MIC, C. parapsilosis ATCC 22019): 1.1 to 2 µg/mL (≈ 1.84 to 3.35 µM); MIC (C. parapsilosis; Table 3b (additional results), ATCC 22019, 3 replicates, MIC recorded at 48 h, read-out: MIC, C. parapsilosis ATCC 22019): 2.01 to 4 µg/mL (≈ 3.36 to 6.69 µM); IC90 ([1]; growth inhibition at 48 hours vs 2% DMSO control, read-out: Concentration at 90% Inhibition Fv): 0.4 µg/mL (≈ 0.669 µM); MIC (C. albicans; Table 3a, ATCC 90028, 3 replicates, MIC recorded at 48 h, read-out: MIC, C. albicans ATCC 90028): 0.25 to 1 µg/mL (≈ 0.418 to 1.67 µM); MIC (C. albicans; Table 3b (additional results), ATCC 90028, 3 replicates, MIC recorded at 48 h, read-out: MIC, C. albicans ATCC 90028): 2.01 to 4 µg/mL (≈ 3.36 to 6.69 µM); IC90 ([2]; growth inhibition at 48 hours vs 2% DMSO control, read-out: Concentration at 90% Inhibition Pc): > 50 µg/mL; MIC (C. krusei; Table 3a, ATCC 6258, 3 replicates, MIC recorded at 48 h, read-out: MIC, C. krusei ATCC 6258): 0.25 to 1 µg/mL (≈ 0.418 to 1.67 µM); MIC (C. krusei; Table 3b (additional results), ATCC 6258, 3 replicates, MIC recorded at 48 h, read-out: MIC, C. krusei ATCC 6258): 2.01 to 4 µg/mL (≈ 3.36 to 6.69 µM); IC90 (Rhizoctonia solani (Rs); mycelial plugs, growth inhibition at 48 hours vs 2% DMSO control, read-out: Concentration at 90% Inhibition Rs): 0.08 µg/mL (≈ 0.134 µM); IC90 (Diplodia maydis (Dm); Diplodia maydis, read-out: Concentration at 90% Inhibition Dm): 0.08 µg/mL (≈ 0.134 µM); IC90 (Botrtyis cinerea (Bc); Botrtyis cinerea, read-out: Concentration at 90% Inhibition Bc): 0.4 µg/mL (≈ 0.669 µM); IC90 ([3]; Fusarium moniliforme, growth inhibition at 48 hours vs 2% DMSO control): 0.4 µg/mL (≈ 0.669 µM); IC90 ([4]; Collectotrichum graminicola, read-out: Concentration at 90% Inhibition Cg): 0.4 µg/mL (≈ 0.669 µM)
